In patent US20020111274A1, “1-alkyl-3-[1-(substituted phenyl) benzotriazol-6-yl] uracils” (BASF Aktiengesellschaft, priority 2000, published 2002):

Experiments:
Set-up in all cases: scale not given here
[1] = system: TRZAWR Wheat, Winter, cv Riband; experiment: Postemergence herbicidal evaluation, TRZAWR; assay type: in vivo, Triticum aestivum; conditions: postemergence spray, rated about two-three weeks after treatment
How it was run: (§1)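 Seedlings grown about two weeks were sprayed with compound in 80/20 acetone/water containing 1.0% methylated seed oil, at the equivalent of about 0.006 to 0.400 kg/ha, through a nozzle at 40 psi. Plants were kept in the greenhouse and rated visually about two to three weeks after treatment.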

ABUTH Velvetleaf [2] = experiment: Postemergence herbicidal evaluation, ABUTH; assay type: in vivo, Abutilon theophrasti, Medic.; conditions: postemergence spray, rated about two-three weeks after treatment
How it was run: as §1

CASOB Sicklepod [3] = experiment: Preemergence herbicidal evaluation, CASOB; assay type: in vivo, Cassia obtusifolia, L.; conditions: preemergence
How it was run: (§2)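 Seeds mixed with potting soil were planted on about one inch of soil in cups, then sprayed with the test compound in aqueous acetone at roughly 0.013 to 0.800 kg per hectare. Plants were kept under standard greenhouse care and injury was rated four to five weeks after treatment.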

CASOB Sicklepod [4] = experiment: Postemergence herbicidal evaluation, CASOB; assay type: in vivo, Cassia obtusifolia, L.; conditions: postemergence spray, rated about two-three weeks after treatment
How it was run: as §1

[5] = system: CHEAL Lambsquarters, Common; experiment: Postemergence herbicidal evaluation, CHEAL; assay type: in vivo, Chenopodium album, L.; conditions: postemergence spray, rated about two-three weeks after treatment
How it was run: as §1

GLXMAW Soybean, Williams = experiment: Preemergence herbicidal evaluation, GLXMAW; assay type: in vivo, Glycine max, (L.) Merr. cv Williams; conditions: preemergence
How it was run: as §2

ORYSAT Rice, Tebonnet = experiment: Preemergence herbicidal evaluation, ORYSAT; assay type: in vivo, Oryza sativa, (L.); conditions: preemergence
How it was run: as §2

SETVI Foxtail, Green = experiment: Preemergence herbicidal evaluation, SETVI; assay type: in vivo, Setaria viridis, (L.) Beau; conditions: preemergence
How it was run: as §2

[6] = system: CHEAL Lambsquarters, Common; experiment: Preemergence herbicidal evaluation, CHEAL; assay type: in vivo, Chenopodium album, L.; conditions: preemergence
How it was run: as §2

ZEAMX Corn, Field [7] = experiment: Preemergence herbicidal evaluation, ZEAMX; assay type: in vivo, Zea mays, L. (Sammel-Bezeichnung); conditions: preemergence
How it was run: as §2

GALAP Galium = experiment: Preemergence herbicidal evaluation, GALAP; assay type: in vivo, Galium aparine; conditions: preemergence
How it was run: as §2

AMBEL Ragweed, Common [8] = experiment: Postemergence herbicidal evaluation, AMBEL; assay type: in vivo, Ambrosia artemisifolia, L.; conditions: postemergence spray, rated about two-three weeks after treatment
How it was run: as §1

[9] = system: IPOHE Morningglory, Ivyleaf; experiment: Preemergence herbicidal evaluation, IPOHE; assay type: in vivo, Ipomoea hederacea, (L.) Jacq.; conditions: preemergence
How it was run: as §2

ECHOG Barnyardgrass [10] = experiment: Postemergence herbicidal evaluation, ECHOG; assay type: in vivo, Echinochloa crus-galli, (L.) Beau; conditions: postemergence spray, rated about two-three weeks after treatment
How it was run: as §1

ZEAMX Corn, Field [11] = experiment: Postemergence herbicidal evaluation, ZEAMX; assay type: in vivo, Zea mays, L. (Sammel-Bezeichnung); conditions: postemergence spray, rated about two-three weeks after treatment
How it was run: as §1

ECHOG Barnyardgrass [12] = experiment: Preemergence herbicidal evaluation, ECHOG; assay type: in vivo, Echinochloa crus-galli, (L.) Beau; conditions: preemergence
How it was run: as §2

[13] = system: IPOHE Morningglory, Ivyleaf; experiment: Postemergence herbicidal evaluation, IPOHE; assay type: in vivo, Ipomoea hederacea, (L.) Jacq.; conditions: postemergence spray, rated about two-three weeks after treatment
How it was run: as §1

AMBEL Ragweed, Common [14] = experiment: Preemergence herbicidal evaluation, AMBEL; assay type: in vivo, Ambrosia artemisifolia, L.; conditions: preemergence
How it was run: as §2

ABUTH Velvetleaf [15] = experiment: Preemergence herbicidal evaluation, ABUTH; assay type: in vivo, Abutilon theophrasti, Medic.; conditions: preemergence
How it was run: as §2

Cc1ccc(O)c(-n2nnc3cc(F)c(-n4c(=O)cc(C(F)(F)F)n(C)c4=O)cc32)c1 [Example 31, 3-[5-Fluoro-1-(2-Hydroxy-5-Methylphenyl)-1H-1,2,3-Benzotriazol-6-yl]-1-Methyl-6-(Trifluoromethyl)-2,4(1H,3H)-(Pyrimidinedione)]
1.0: Postemergence herbicidal rating IPOHE ([13]; 0.008 kg/ha)
9.0: CHEAL herbicidal rating ([6]; rate 0.125 kg/ha)
4.5: Postemergence herbicidal rating ZEAMX (ZEAMX Corn, Field [11]; 0.032 kg/ha) | Postemergence herbicidal rating ZEAMX (ZEAMX Corn, Field [11]; 0.062 kg/ha)
4.0: Postemergence herbicidal rating ABUTH (ABUTH Velvetleaf [2]; 0.062 kg/ha) | Postemergence herbicidal rating IPOHE ([13]; 0.032 kg/ha) | Postemergence herbicidal rating IPOHE ([13]; 0.062 kg/ha)
3.5: Postemergence herbicidal rating ZEAMX (ZEAMX Corn, Field [11]; 0.008 kg/ha) | Postemergence herbicidal rating ZEAMX (ZEAMX Corn, Field [11]; 0.016 kg/ha)
3.0: Postemergence herbicidal rating TRZAWR ([1]; 0.032 kg/ha) | Postemergence herbicidal rating TRZAWR ([1]; 0.062 kg/ha) | CHEAL herbicidal rating ([6]; rate 0.062 kg/ha) | Postemergence herbicidal rating AMBEL (AMBEL Ragweed, Common [8]; 0.062 kg/ha) | Postemergence herbicidal rating ECHCG (ECHOG Barnyardgrass [10]; 0.062 kg/ha) | ABUTH herbicidal rating (ABUTH Velvetleaf [15]; rate 0.125 kg/ha)
0.0: Postemergence herbicidal rating ABUTH (ABUTH Velvetleaf [2]; 0.008 kg/ha) | Postemergence herbicidal rating ABUTH (ABUTH Velvetleaf [2]; 0.016 kg/ha) | CASOB herbicidal rating (CASOB Sicklepod [3]; rate 0.008 kg/ha) | CASOB herbicidal rating (CASOB Sicklepod [3]; rate 0.016 kg/ha) | CASOB herbicidal rating (CASOB Sicklepod [3]; rate 0.032 kg/ha) | CASOB herbicidal rating (CASOB Sicklepod [3]; rate 0.062 kg/ha) | CASOB herbicidal rating (CASOB Sicklepod [3]; rate 0.125 kg/ha) | Postemergence herbicidal rating CASOB (CASOB Sicklepod [4]; 0.008 kg/ha) | Postemergence herbicidal rating CASOB (CASOB Sicklepod [4]; 0.016 kg/ha) | Postemergence herbicidal rating CASOB (CASOB Sicklepod [4]; 0.032 kg/ha) | Postemergence herbicidal rating CASOB (CASOB Sicklepod [4]; 0.062 kg/ha) | Postemergence herbicidal rating CHEAL ([5]; 0.008 kg/ha) | Postemergence herbicidal rating CHEAL ([5]; 0.016 kg/ha) | Postemergence herbicidal rating CHEAL ([5]; 0.032 kg/ha) | Postemergence herbicidal rating CHEAL ([5]; 0.062 kg/ha) | GLXMAW herbicidal rating (GLXMAW Soybean, Williams; rate 0.008 kg/ha) | GLXMAW herbicidal rating (GLXMAW Soybean, Williams; rate 0.016 kg/ha) | GLXMAW herbicidal rating (GLXMAW Soybean, Williams; rate 0.032 kg/ha) | GLXMAW herbicidal rating (GLXMAW Soybean, Williams; rate 0.062 kg/ha) | GLXMAW herbicidal rating (GLXMAW Soybean, Williams; rate 0.125 kg/ha) | ORYSAT herbicidal rating (ORYSAT Rice, Tebonnet; rate 0.008 kg/ha) | ORYSAT herbicidal rating (ORYSAT Rice, Tebonnet; rate 0.016 kg/ha) | ORYSAT herbicidal rating (ORYSAT Rice, Tebonnet; rate 0.032 kg/ha) | ORYSAT herbicidal rating (ORYSAT Rice, Tebonnet; rate 0.062 kg/ha) | ORYSAT herbicidal rating (ORYSAT Rice, Tebonnet; rate 0.125 kg/ha) | SETVI herbicidal rating (SETVI Foxtail, Green; rate 0.008 kg/ha) | SETVI herbicidal rating (SETVI Foxtail, Green; rate 0.016 kg/ha) | SETVI herbicidal rating (SETVI Foxtail, Green; rate 0.032 kg/ha) | SETVI herbicidal rating (SETVI Foxtail, Green; rate 0.062 kg/ha) | SETVI herbicidal rating (SETVI Foxtail, Green; rate 0.125 kg/ha) | CHEAL herbicidal rating ([6]; rate 0.008 kg/ha) | CHEAL herbicidal rating ([6]; rate 0.016 kg/ha) | CHEAL herbicidal rating ([6]; rate 0.032 kg/ha) | ZEAMX herbicidal rating (ZEAMX Corn, Field [7]; rate 0.008 kg/ha) | ZEAMX herbicidal rating (ZEAMX Corn, Field [7]; rate 0.016 kg/ha) | ZEAMX herbicidal rating (ZEAMX Corn, Field [7]; rate 0.032 kg/ha) | ZEAMX herbicidal rating (ZEAMX Corn, Field [7]; rate 0.062 kg/ha) | ZEAMX herbicidal rating (ZEAMX Corn, Field [7]; rate 0.125 kg/ha) | GALAP herbicidal rating (GALAP Galium; rate 0.008 kg/ha) | GALAP herbicidal rating (GALAP Galium; rate 0.016 kg/ha) | GALAP herbicidal rating (GALAP Galium; rate 0.032 kg/ha) | GALAP herbicidal rating (GALAP Galium; rate 0.062 kg/ha) | GALAP herbicidal rating (GALAP Galium; rate 0.125 kg/ha) | Postemergence herbicidal rating AMBEL (AMBEL Ragweed, Common [8]; 0.008 kg/ha) | Postemergence herbicidal rating AMBEL (AMBEL Ragweed, Common [8]; 0.016 kg/ha) | Postemergence herbicidal rating AMBEL (AMBEL Ragweed, Common [8]; 0.032 kg/ha) | IPOHE herbicidal rating ([9]; rate 0.008 kg/ha) | IPOHE herbicidal rating ([9]; rate 0.016 kg/ha) | IPOHE herbicidal rating ([9]; rate 0.032 kg/ha) | IPOHE herbicidal rating ([9]; rate 0.062 kg/ha) | IPOHE herbicidal rating ([9]; rate 0.125 kg/ha) | Postemergence herbicidal rating ECHCG (ECHOG Barnyardgrass [10]; 0.008 kg/ha) | Postemergence herbicidal rating ECHCG (ECHOG Barnyardgrass [10]; 0.016 kg/ha) | Postemergence herbicidal rating ECHCG (ECHOG Barnyardgrass [10]; 0.032 kg/ha) | ECHCG herbicidal rating (ECHOG Barnyardgrass [12]; rate 0.008 kg/ha) | ECHCG herbicidal rating (ECHOG Barnyardgrass [12]; rate 0.016 kg/ha) | ECHCG herbicidal rating (ECHOG Barnyardgrass [12]; rate 0.032 kg/ha) | ECHCG herbicidal rating (ECHOG Barnyardgrass [12]; rate 0.062 kg/ha) | ECHCG herbicidal rating (ECHOG Barnyardgrass [12]; rate 0.125 kg/ha) | AMBEL herbicidal rating (AMBEL Ragweed, Common [14]; rate 0.008 kg/ha) | AMBEL herbicidal rating (AMBEL Ragweed, Common [14]; rate 0.016 kg/ha) | AMBEL herbicidal rating (AMBEL Ragweed, Common [14]; rate 0.032 kg/ha) | AMBEL herbicidal rating (AMBEL Ragweed, Common [14]; rate 0.062 kg/ha) | AMBEL herbicidal rating (AMBEL Ragweed, Common [14]; rate 0.125 kg/ha) | ABUTH herbicidal rating (ABUTH Velvetleaf [15]; rate 0.008 kg/ha) | ABUTH herbicidal rating (ABUTH Velvetleaf [15]; rate 0.016 kg/ha) | ABUTH herbicidal rating (ABUTH Velvetleaf [15]; rate 0.032 kg/ha) | ABUTH herbicidal rating (ABUTH Velvetleaf [15]; rate 0.062 kg/ha)
2.0: Postemergence herbicidal rating TRZAWR ([1]; 0.008 kg/ha) | Postemergence herbicidal rating TRZAWR ([1]; 0.016 kg/ha) | Postemergence herbicidal rating ABUTH (ABUTH Velvetleaf [2]; 0.032 kg/ha) | Postemergence herbicidal rating IPOHE ([13]; 0.016 kg/ha)
